Laboratory results as given in PubChem BioAssay (NCI).
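GI50 is the concentration that inhibits growth by half. The concentration for full growth arrest is given as TGI.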

What was measured:
Assay in all cases: DTP human tumour cell line panel, 384-well format
[1] = system: NCI-H226 lung
[2] = system: NCI-H23 lung
[3] = system: NCI-H322M lung
[4] = system: NCI-H460 NSCLC
[5] = system: NCI-H522 lung
[6] = system: NCI/ADR-RES ovarian
[7] = system: OVCAR-3 ovarian
[8] = system: OVCAR-4 ovarian
[9] = system: OVCAR-5 ovarian
[10] = system: OVCAR-8 ovarian
[11] = system: PC-3 prostate
[12] = system: RPMI-8226 leukemia
[13] = system: RXF 393 renal
[14] = system: SF-268 CNS
[15] = system: SF-295 CNS
[16] = system: SF-539 CNS
[17] = system: SK-MEL-2 melanoma
[18] = system: SK-MEL-28 melanoma
[19] = system: SK-MEL-5 melanoma
[20] = system: SK-OV-3 ovarian
[21] = system: SN12C renal
[22] = system: SNB-19 CNS
[23] = system: SNB-75 CNS
[24] = system: SR leukemia
[25] = system: SW-620 colon
[26] = system: T-47D breast
[27] = system: TK-10 renal
[28] = system: U251 glioblastoma
[29] = system: UACC-257 melanoma
[30] = system: UACC-62 melanoma

Compound `Oc1ccc(-c2nc(-c3ccc(F)cc3)c(-c3ccncc3)[nH]2)cc1` has a TGI [1] of 39.4 µM, a GI50 [2] of 29.2 µM and a TGI [2] of 85.4 µM. For the same compound, the GI50 [3] was 21.3 µM, the TGI [3] was 52.5 µM and the GI50 [4] was 15.3 µM. The TGI [4] was 28.9 µM, the GI50 [5] was 7.46 µM and the TGI [5] was 22.2 µM. For the same compound, the GI50 [6] was 20.2 µM, the TGI [6] was 46.6 µM and the GI50 [7] was 14.9 µM. For the same compound, the TGI [7] was 29 µM, the GI50 [8] was 47.5 µM and the TGI [8] was greater than 100 µM. It also gave a GI50 [9] of 23.6 µM, a TGI [9] of 47 µM and a GI50 [10] of 22.7 µM. For the same compound, the TGI [10] was greater than 100 µM, the GI50 [11] was 18.7 µM and the TGI [11] was greater than 57 µM. It also gave a GI50 [12] of 5.38 µM, a TGI [12] of 13.1 µM and a GI50 [13] of 15 µM. The TGI [13] was 31.5 µM, the GI50 [14] was 18.3 µM and the TGI [14] was 46.2 µM. The GI50 [15] was 17.5 µM, the TGI [15] was 33.1 µM and the GI50 [16] was 17.6 µM. For the same compound, the TGI [16] was 35.8 µM, the GI50 [17] was 16.3 µM and the TGI [17] was 30 µM. It also gave a GI50 [18] of 7.27 µM, a TGI [18] of 22.4 µM and a GI50 [19] of 10.6 µM. The TGI [19] was 22.5 µM, the GI50 [20] was 13 µM and the TGI [20] was 32.7 µM. The GI50 [21] was 44.3 µM, the TGI [21] was greater than 100 µM and the GI50 [22] was 41.7 µM. It also gave a TGI [22] greater than 100 µM, a GI50 [23] of 32.9 µM and a TGI [23] greater than 85.4 µM. For the same compound, the GI50 [24] was 10.3 µM, the TGI [24] was 22.1 µM and the GI50 [25] was 23.5 µM. The TGI [25] was 38.4 µM, the GI50 [26] was 12.5 µM and the TGI [26] was 27.1 µM. It also gave a GI50 [27] of 18.8 µM, a TGI [27] of 57.3 µM and a GI50 [28] of 18.6 µM. The TGI [28] was 48.3 µM, the GI50 [29] was 21.9 µM and the TGI [29] was greater than 54 µM. It also gave a GI50 [30] of 3.62 µM and a TGI [30] of 16.8 µM.
